Source: patent publication US11759480B2, “Compositions and methods for CAR T cell therapy” (ENDOCYTE, INC., priority 2017, dated 2023)

Tests used:
MDA-MB-231 tumor = assay: Enumeration and characterization of FITC CAR T cells in blood after rescue (Example 33); type: in vivo, NSG mice
Procedure: Plasma was removed from predetermined volumes of whole EDTA treated blood with a 10-minute 4° C. spin at 3000 g and the resulting cell pellets were incubated with a 10-fold volume of room temperature 1×RBC lysis solution [prepared from 10× stock; Biolegend, catalog #420301] for 5 minutes, centrifuged at 400 g for 5 min, and the cell pellet was washed in a 10-fold volume of ice cold phosphate buffered saline pH=7.4 and filtered with a 40 μm nylon filter and then pelleted again. The leukocyte pellets were then resuspended in flow cytometry staining solution [1% bovine serum albumin, 50 mg/mL human IgG (Equitech Bio, cat #SLH56-0001), 0.9% sodium azide in a phosphate buffered saline, pH=7.4] supplemented with both anti-mouse FcγIII/II receptor (CD16/CD32) block [clone 2.4G2; BD Bioscience, catalog #553142 at 1:100 (v/v) dilution] and anti-human Fc Block [BD Biosciences, catalog #564220 at 1:50 (v/v) dilution]. Leukocyte surface marker staining was performed with the addition of the following fluorochrome conjugated monoclonal antibodies added to each sample for 20 minutes on ice in the dark: anti-human CD45-APCeF780 [clone HI30, eBioscience #47-0459-42 at 1:20 (v/v) dilution], anti-human CD137-BV650 [clone 4B4-1, BD Bioscience #564092 at 1:20 (v/v) dilution], anti-human CD8α-PECy7 [clone RPA-T8, BD Bioscience, catalog #557746 at 1:20 (v/v) dilution], anti-human CD4-Percpe710 [clone SK3, eBioscience catalog #46-0047-42 at 1:20 (v/v) dilution]. After leukocyte staining, cells were washed with PBS and resuspended in cold PBS containing 53,000 CountBright™ beads [Invitrogen catalog #C36950] and transferred to flow cytometry collection tubes. Flow cytometry data was collected on the Gallios flow cytometer (Beckman Coulter, Brea, Calif.), where a minimum of 15,000 CountBright™ bead events were collected in an attempt to collect enough leukocyte events for an accurate count of infused CART cells in each mouse blood sample. Determination of the concentration of CAR T cells in each blood sample was calculated according to Invitrogen's instructions. Briefly, CAR T cells were identified as human CD45+ GFP+ events and were easily distinguished and counted using the Kaluza™ flow cytometry software. CountBright™ beads were uniformly labeled with a fluorochrome not utilized in the antibody panel used to identify the CAR T cells and were easily distinguished from the leukocytes and bead events were counted. Because 53,000 CountBright™ beads were added to each sample tube, we calculated the ratio of 53,000 total beads to bead events collected per sample and set the bead ratio equivalent to the unknown number of CAR T cells in each sample divided by the known number of CAR T cell events collected. Solving for the unknown gave us the number of CAR T cells isolated from each blood sample of known volumes. The number of CAR T cells in the circulation of each infused mouse was then represented on the graphs as the total number of CART cells per 50 μL of whole blood analyzed. Statistical significance was determined by utilizing an unpaired, two-tailed, students t-test with significance set at p<0.05 for comparisons between each of the three groups of mice.
The experimental timeline is represented in FIG. 53A. On day 0, GFP+FITC-CAR T cells [clone 4M5.3] were removed from cryopreservation, thawed and then infused intravenously into MDA-MB-231 tumor bearing NSG mice at 10 million per mouse [tumors ˜250 mm^3]. […]

MDA-MB-231 tumors = assay: Host mouse cytokines after NaFL rescue (Example 48); type: in vivo, NSG mice
Procedure: In the first part of the study (FIG. 75), mice were treated with EC17 and FITC-CAR-T cells. When mice started to show sCRS, one dose of 60 umol/kg NaFL was injected for rescue. Mouse blood samples were then collected at both 7 hours and 27 hours post NaFL rescue. Mouse cytokine levels in blood were analyzed using a mouse inflammation panel kit (Cat. No. 740446) from BioLegend by following the manufacturer's instructions. FIGS. 76 A-E show cytokine levels 7 hours post rescue. FIGS. 77A-C show cytokine levels 27 hours post rescue.
In the second part of the study, a series of concentrations of NaFL were tested for their rescue efficiency (FIG. 78). As shown in FIGS. 79-81, mice cytokine levels in blood were also dependent on the concentrations of sodium fluorescein used for rescue, and the median effective dose is about 0.6 μmol/kg with cytokines tested (e.g. MCP-1, IL-6, and IL-10) and the mice started to respond as early as 3 hours post rescue.

SMILES	CAR T cells in circulation (MDA-MB-231 tumor; 60 μmol/kg, 27 hours after rescue)	earliest increase of circulating CAR T cells (MDA-MB-231 tumor; 0.06-6 μmol/kg)	CAR T cell extravasation into the blood (MDA-MB-231 tumor; 24 hours post rescue, 0.06-6 μmol/kg)	4-1BB (CD137) on circulating CAR T cells (MDA-MB-231 tumor; CAR T + EC17 + sodium fluorescein 60 μmol/kg)	mouse cytokine levels in blood (MDA-MB-231 tumors; 60 μmol/kg, 7 hours and 27 hours post rescue)	earliest response post rescue (MDA-MB-231 tumors; mouse, in vivo)	median effective dose (mouse MCP-1, IL-6, IL-10) (MDA-MB-231 tumors; mouse, in vivo)	CAR T cells in circulation (MDA-MB-231 tumor; one dose EC17 500 nmol/kg)	mouse cytokine levels in blood (MCP-1, IL-6, IL-10, IFN-β, TNF-α) (MDA-MB-231 tumors; EC17 dosed versus CAR-T without EC17)
O=C([O-])c1ccccc1-c1c2ccc(=O)cc-2oc2cc([O-])ccc12.[Na+].[Na+] [sodium fluorescein]	CAR T cells reappear in the circulation	3 h	increased in a sodium fluorescein dose-dependent manner	express significant amounts of 4-1BB	much lower than those in un-rescued mice	3 h	about 0.6 μmol/kg		
Nc1nc2ncc(CNc3ccc(C(=O)NC(CCC(=O)NCCNC(=S)Nc4ccc(-c5c6ccc(=O)cc-6oc6cc(O)ccc56)c(C(=O)O)c4)C(=O)O)cc3)nc2c(=O)[nH]1 (stereo not drawn) [EC17, FITC-Folate]								very few CAR T cells are detected in the circulation	increased mouse cytokine levels
